Reference: patent publication US20210017607A1, “Methods of Predicting Responsiveness to Cancer Therapies” (The University of Chicago, priority 2019, published 2021)

Tested on: ID8 ovarian cancer cells
Assay: ID8 cells in vitro STING pathway activation (western, ImageStream, ELISA)
Format: cell-based, mouse
Settings: for STING pathway activation within ID8-PTEN^−/− cells / IFNB1 levels in combination with STING agonist DMXAA, ID8-PTEN^−/− cells: 36 hours; for IFNB1 levels in combination with STING agonist DMXAA, ID8-PTEN^−/− cells: ELISA
Description: FIGS. 56A and 56B. […] (56A) PTEN-proficient (PTEN^+/+) and deficient (PTEN^−/−) ID8 ovarian cancer cells were treated with DMXAA (50 μg/mL) for 0, 1, 6, 12, 24 and 36 hours. Nuclear extracts were probed for localization of p-IRF3 and p-NF-kB, markers of STING pathway activation. n=1 independent experiment. (56B) Wild-type (PTEN^+/+) and PTEN-deficient (PTEN^−/−) Myc-CAP (prostate) and ID8 (ovarian) cancer cells were treated with DMXAA (50 μg/mL) for 36 hours. The supernatants were analyzed by ELISA for IFN-β1 release. n=3 independent experiments.
FIGS. 57A-57C. […] PTEN-proficient (PTEN+/+) and deficient (PTEN−/−) ID8 ovarian cancer cells were treated with DMXAA (50 μg/mL) for 0, 12, 24 and 36 hours. (57A) The nuclear localization of p-IRF3 and p-NFkB was analyzed by ImageStream. The overlap of the two generates a white color that scores for nuclear localization of pIRF3. (57B) Graphical representation of nuclear localization of pIRF3 and p-NF-kB at 12, 24, and 36 hours after DMXAA treatment, relative to untreated groups in ID8 wild-type and PTEN^−/− cells. n=3 independent experiments.
FIGS. 58A and 58B. […] (58A) PTEN-proficient (PTEN^+/+) and deficient (PTEN^−/−) ID8 ovarian cancer cells were treated with IC90 concentrations of pan-PI3K inhibitors, either copanlisib (100 nM) or BKM120 (1000 nM) for 36 hours in presence or absence of STING agonists, DMXAA (50 μg/mL, 1 hour at the end of experiment). The activation status of both PI3K and STING signaling pathways were probed with the indicated antibodies by western blotting. n=2 independent experiments. (58B) Cells were treated as described in (58A), with the exception that concomitant DMXAA treatment was carried out for 36 hours. The supernatants were analyzed by ELISA for IFN-β1 release. n=3 independent experiments.
Cytokine Array/IFNβ1 ELISA. Supernatants from untreated or drug treated cancer cell lines and bone marrow derived macrophages were collected at 36 hours and spun down at 2000×g for 5 min at 4° C. to remove cellular debris. These clear supernatants were processed for detection of Type I Interferon by ELISA (LEGEND MAX™ Mouse IFNβ1 ELISA, Biolegend®) or for determination of a panel of cytokines/chemokines using LEGENDplex™ array (Mouse Anti-Virus Response Panel, Biolegend®) as per instructions in protocol provided.
Western blotting. RIPA buffer (Boston BioProducts) supplemented with protease (Roche®) and HALT phosphatase inhibitor cocktail (Thermo Scientific®) was used for preparation of total cell lysates. For western blotting, the following antibodies were used from Cell Signaling Technology®: Polyclonal rabbit anti-mouse-, phospho-AKT, total AKT, c-GAS, STING, phospho-IRF3, total IRF3, phospho-TBK1, total TBK1, PTEN, phospho NF-kB, total NF-kB, p53, lamin B1, β-actin, alpha-tubulin, and GAPDH. Images of scanned blots were processed using ADOBE Photoshop.
Image Stream Analysis. PTEN-proficient and deficient ID8 ovarian cancer cells were treated with DMXAA (50 ug/mL) for 0, 12, 24, and 36 hours. After termination at endpoints, cells were stained with primary antibodies—anti-mouse p-IRF3 (Cell Signaling Technology®), p-NFkB (Cell Signaling Technology®), followed by incubation with flurochrome tagged secondary antibodies and DAPI. Images of nuclear localization of p-IRF3 and p-NF-kB within single cells were acquired using ImageStreamg®^x Mark II (Amnis®) and data obtained was analyzed using IDEAS® software.

## Cc1ccc2c(=O)c3cccc(CC(=O)O)c3oc2c1C [DMXAA, 5,6-Dimethylxanthenone-4-acetic Acid]
DMXAA 50 μg/mL
  STING pathway activation after PTEN knockdown: abrogates STING pathway activation
DMXAA 50 μg/mL, 0-36 hours
  IRF3 translocation to the nucleus after PTEN knockdown: abolishes IRF3 translocation to the nucleus

## Nc1cc(C(F)(F)F)c(-c2cc(N3CCOCC3)nc(N3CCOCC3)n2)cn1 [buparlisib]
  STING pathway activation within ID8-PTEN^−/− cells: partially restore STING pathway activation
  IFNB1 levels in combination with STING agonist DMXAA, ID8-PTEN^−/− cells: unable to rescue IFNB1 levels

## COc1c(OCCCN2CCOCC2)ccc2c1N=C(NC(=O)c1cnc(N)nc1)N1CCN=C21 [copanlisib]
  STING pathway activation within ID8-PTEN^−/− cells: partially restore STING pathway activation
  IFNB1 levels in combination with STING agonist DMXAA, ID8-PTEN^−/− cells: unable to rescue IFNB1 levels
